Data as given in patent US20070134231A1, “Method for prolonging activity of autodegradable enzymes and compositions thereof” (priority 2005, published 2007).
Counter-ions that a name gives are not always drawn. Where a SMILES comes first, the peptide text is derived from it.

Target: T1, human plasmin (Homo sapiens, UniProt P00747)
T1 construct: which cleave a single-chain plasminogen molecule at the Arg^560 -Val^561 peptide bond, producing active plasmin; purchased Talecris, Inc. (Research Triangle Park, North Carolina)
Test: Plasmin precipitation study in buffer solutions (PBS, pH of about 7.4)
Type: physicochemical
Details: Test No. 9: ε-aminocaproic acid in combination with gelatin 0.3% (w/v), pH of about 7.4
Description: This acidified, lyophilized plasmin was reconstituted with 0.9% (by weight) NaCl solution to a concentration of 10 mg/ml. […] Combinations of ε-aminocaproic acid and gelatin or glycerin were also tested. The concentration of plasmin in the additive-containing buffer was 1 mg/ml.

Molecule | Minimum Concentration of Additive Required to Prevent Visually Observed Plasmin Precipitation [mM]
NCCCCCC(=O)O [ε-aminocaproic acid, reference compound] | 0.1

Same assay, conditions: Test No. 10: glycerin in combination with 0.1 mM ε-aminocaproic acid, pH of about 7.4

Molecule | Minimum Concentration of Additive Required to Prevent Visually Observed Plasmin Precipitation
OCC(O)CO [glycerin] | 6% (v/v)

Same assay, conditions: Test No. 10: ε-aminocaproic acid in combination with glycerin 6% (v/v), pH of about 7.4

Molecule | Minimum Concentration of Additive Required to Prevent Visually Observed Plasmin Precipitation [mM]
NCCCCCC(=O)O [ε-aminocaproic acid, reference compound] | 0.1

Same assay, conditions: plasmin 1 mg/ml, observed within 2 hours

Molecule | Concentration Range Tested That Did Not Prevent Precipitation at pH of About 7.4
CC(O)CO (stereo not shown) [propylene glycol] | 2-20% v/v
OC[C@H]1O[C@H](O[C@H]2O[C@H](CO)[C@@H](O)[C@H](O)[C@H]2O)[C@H](O)[C@@H](O)[C@@H]1O [trehalose] | 10%
O=S(=O)([O-])[O-].[Na+].[Na+] [sodium sulfate] | 0.3-0.6 M
CSCC[C@H](N)C(=O)O [L-methionine] | 0.2%
O=C(O)C(=O)O [oxalic acid] | 50 mM
NCC(=O)O [glycine] | 0.1 M
O=C(O)CCCCC(=O)O [adipic acid] | 50 mM
CN(C)CC(=O)O [N,N-dimethylglycine] | 0.5-1 M

Same assay, conditions: single additive, pH of about 7.4, plasmin 1 mg/ml, observed within 2 hours

Molecule | Minimum Concentration of Additive Required to Prevent Visually Observed Plasmin Precipitation
C[N+](C)(C)CC(=O)O [betaine, (carboxymethyl)trimethylammonium inner salt] | 0.2 M
CC(=O)N[C@@H](CCCNC(=N)N)C(=O)O [N-α-acetyl-L-arginine] | 50 mM
NC[C@H]1CC[C@H](C(=O)O)CC1 [tranexamic acid, trans-4-(aminomethyl)cyclohexanecarboxylic acid, reference compound] | 0.5 mM
OCC(O)CO [glycerin] | 10% (by weight)
NCC(=O)NCC(=O)O [glycylglycine] (H-Gly-Gly-OH) | 10 mM
NCC(=O)NCC(=O)NCC(=O)O [triglycine] (H-Gly-Gly-Gly-OH) | 10 mM
N=C(N)NCCC[C@H](N)C(=O)O [L-arginine] | 50 mM
OC[C@@H](O)[C@@H](O)[C@H](O)[C@@H](O)CO [D-sorbitol] | 12% (w/v)
NCCCC(=O)O [γ-aminobutyric acid] | 5 mM
NCCCCC(=O)O [5-aminovaleric acid] | 1 mM
NCCCCCCC(=O)O [7-aminoheptanoic acid] | 5 mM
CNCC(=O)O [sarcosine, N-methylglycine] | 1 M
NCCCCCC(=O)O [ε-aminocaproic acid, reference compound] | 1 mM

Tested on: not given
Test: not given
Details: buffered acidified water, 4° C.; cited from earlier work

Molecule | storage stability
plasmin: serine proteinase, formulated in buffered acidified water (reversibly inactive acidified plasmin) (protein, UniProt P00747 20-580; P00747 581-810, looked up, Plasmin acidified formulation) Plasmin heavy chain A: EPLDDYVNTQGASLFSVTKKQLGAGSIEECAAKCEEDEEFTCRAFQYHSKEQQCVIMAENRKSSIIIRMRDVVLFEKKVYLSECKTGNGKNYRGTMSKTKNGITCQKWSSTSPHRPRFSPATHPSEGLEENYCRNPDNDPQGPWCYTTDPEKRYDYCDILECEEECMHCSGENYDGKISKTMSGLECQAWDSQSPHAHGYIPSKFPNKNLKKNYCRNPDRELRPWCFTTDPNKRWELCDIPRCTTPPPSSGPTYQCLKGTGENYRGNVAVTVSGHTCQHWSAQTPHTHNRTPENFPCKNLDENYCRNPDGKRAPWCHTTNSQVRWEYCKIPSCDSSPVSTEQLAPTAPPELTPVVQDCYHGDGQSYRGTSSTTTTGKKCQSWSSMTPHRHQKTPENYPNAGLTMNYCRNPDADKGPWCFTTDPSVRWEYCNLKKCSGTEASVVAPPPVVLLPDVETPSEEDCMFGNGKGYRGKRATTVTGTPCQDWAAQEPHRHSIFTPETNPRAGLEKNYCRNPDGDVGGPWCYTTNPRKLYDYCDVPQCAAPSFDCGKPQVEPKKCPGR Plasmin light chain B: VVGGCVAHPHSWPWQVSLRTRFGMHFCGGTLISPEWVLTAAHCLEKSPRPSSYKVILGAHQEVNLEPHVQEIEVSRLFLEPTRKDIALLKLSSPAVITDKVIPACLPSPNYVVADRTECFITGWGETQGTFGAGLLKEAQLPVIENKVCNRYEFLNGRVQSTELCAGHLAGGTDSCQGDSGGPLVCFEKDKYILQGVTSWGLGCARPNKPGVYVRVSRFVTWIEGVMRNN | stable for at least nine months

Same assay, conditions: buffered acidified water, room temperature; cited from earlier work

Molecule | storage stability
plasmin: serine proteinase, formulated in buffered acidified water (reversibly inactive acidified plasmin) (protein, UniProt P00747 20-580; P00747 581-810, looked up, Plasmin acidified formulation) Plasmin heavy chain A: EPLDDYVNTQGASLFSVTKKQLGAGSIEECAAKCEEDEEFTCRAFQYHSKEQQCVIMAENRKSSIIIRMRDVVLFEKKVYLSECKTGNGKNYRGTMSKTKNGITCQKWSSTSPHRPRFSPATHPSEGLEENYCRNPDNDPQGPWCYTTDPEKRYDYCDILECEEECMHCSGENYDGKISKTMSGLECQAWDSQSPHAHGYIPSKFPNKNLKKNYCRNPDRELRPWCFTTDPNKRWELCDIPRCTTPPPSSGPTYQCLKGTGENYRGNVAVTVSGHTCQHWSAQTPHTHNRTPENFPCKNLDENYCRNPDGKRAPWCHTTNSQVRWEYCKIPSCDSSPVSTEQLAPTAPPELTPVVQDCYHGDGQSYRGTSSTTTTGKKCQSWSSMTPHRHQKTPENYPNAGLTMNYCRNPDADKGPWCFTTDPSVRWEYCNLKKCSGTEASVVAPPPVVLLPDVETPSEEDCMFGNGKGYRGKRATTVTGTPCQDWAAQEPHRHSIFTPETNPRAGLEKNYCRNPDGDVGGPWCYTTNPRKLYDYCDVPQCAAPSFDCGKPQVEPKKCPGR Plasmin light chain B: VVGGCVAHPHSWPWQVSLRTRFGMHFCGGTLISPEWVLTAAHCLEKSPRPSSYKVILGAHQEVNLEPHVQEIEVSRLFLEPTRKDIALLKLSSPAVITDKVIPACLPSPNYVVADRTECFITGWGETQGTFGAGLLKEAQLPVIENKVCNRYEFLNGRVQSTELCAGHLAGGTDSCQGDSGGPLVCFEKDKYILQGVTSWGLGCARPNKPGVYVRVSRFVTWIEGVMRNN | stable for at least two months

Tested on: not given
Test: not given
Details: at 25° C.; cited from earlier work

Molecule | pKa
O=S(=O)(O)CCCCN1CCOCC1 [MOBS, 4-{N-morpholino}butanesulfonic acid] | 7.6
3-(N,N-bis{2-hydroxyethyl}amino)-2-hydroxypropane [DIPSO] | 7.52
O=S(=O)(O)CC(O)CNC(CO)(CO)CO (stereo not shown) [TAPSO, 2-hydroxy-3{tris(hydroxymethyl)methylamino}-1-propanesulfonic acid] | 7.61
O=S(=O)(O)CCNC1CCCCC1 [CHES] | 9.5
O=S(=O)(O)CCNC(CO)(CO)CO [TES, N-tris{hydroxymethyl}-methyl-2-aminoethanesulfonic acid] | 7.4
